row,Compound,melting point [°C]
1,CCCSC1(C(F)(F)F)C=NC(=O)Nc2ccc(Cl)cc21 (stereo not given),156 to 157
2,Cc1ccc(S(=O)(=S)OCc2ccccc2)cc1 (stereo not given),52 to 56.5
3,O=Cc1coc2ccc(Br)cc2c1=O,186 to 188
4,CCCC12CCC3C4CCC(=O)C=C4CCC3C1CCC2O (stereo not given),126 to 127
5,CN(C)c1ccc(C2(c3ccc(N(C)C)cc3Cl)OC(=O)c3cc(N(C)C)ccc32)cc1 (stereo not given),233 to 234
6,CC1(c2nn(-c3c(Cl)cc(C(F)(F)F)cc3Cl)cc2C#N)CC1(Cl)Cl (stereo not given),97 to 98.5
7,C[C@@H]1NC(=O)c2cccc(N)c2NC1=O,320
8,O=C1Nc2ccccc2N(C(=O)CCCl)c2ccccc21,241 to 242
9,CC(=Cc1ccc(O)cc1)c1ccc2c(c1)C(C)(C)CC2(C)C,137
10,CC(C)c1ccc2c(c1)C(O)(c1ccccn1)CC(C)(C)CO2 (stereo not given),72
11,O=C(Cn1ccnc1)c1ccccc1,121 to 122
12,C#Cc1ccc2c(c1)C(c1ccccn1)=NCc1c(-c3nc(C(C)C)no3)ncn1-2,> 200
13,CCC(=C(c1ccccc1)c1ccc(N(CCN(CC)CC)S(C)(=O)=O)cc1)c1ccc(OC)cc1,120 to 130
14,CC1COC(c2ccccc2)(c2ccc(N)c([N+](=O)[O-])c2)O1 (stereo not given),155
15,O=[N+]([O-])c1cccc2c1CN(Cc1ccccc1)C2,77.5 to 78
16,Cc1ccc(Cl)cc1C(=O)CO,55 to 57
17,O=C1CCCN1C(=O)Oc1cccc(Br)c1,95 to 96
18,CNCCOc1ccc2nc(SCc3ccc(Cl)cc3)sc2c1,56 to 58
19,CC(C)(C)OC(=O)N(CC(=O)O)Cc1ccccc1,94 to 97
20,CCOC(=O)CNCP(=O)(O)O,> 220
21,CC(C)(C)[Si](C)(C)Oc1ccc2c(c1)C(=O)c1ccc(O[Si](C)(C)C(C)(C)C)cc1C2=O,131 to 133
22,O=S(=O)(CCO)CCCS(=O)(=O)CCO,158 to 161
23,"O=C(O)C1CCc2ccccc2O1 (single isomer, unassigned; (+))",85.5
24,O=C1NCCC1=Cc1ccccc1OCC(O)CN1CCC(c2ccc3c(c2)CCCC3)CC1 (stereo not given),157 to 159
25,CC(=O)c1ccc2c(c1)S(=O)(=O)c1ccccc1O2,163 to 165
26,C=CCc1cc(C=C2SCNC2=O)cc(CC=C)c1O,184 to 188
27,CC(C)(C)OC(=O)N1CCN(Cc2ccccc2)C[C@H]1C(c1ccccc1)c1ccccc1,108 to 109

row,Compound,melting point [°C]
1,CSc1cc(C(C)(C)C)c(O)c(-c2nc3ccc(S(=O)(=O)C(F)(F)F)cc3[nH]2)c1C,210 to 211
2,N#CC(c1ccccc1)c1nc(-c2ccncc2)cs1 (stereo not given),110 to 111
3,O=CNc1ccc(SC(CCc2ccc(Cl)cc2)Cn2ccnc2)cc1 (stereo not given),91 to 94
4,Cc1cc2c(cc1C)CCC(C(=O)O)=C2,222 to 223
5,C[C@H]1CCCC(C)(C)[C@@H]1[C@H](O)c1ccc(C(F)(F)F)c(F)c1,71 to 73
6,CC1(C)CC(Nc2nc(NC3CC(C)(C)NC(C)(C)C3)nc(NC3CC(C)(C)NC(C)(C)C3)n2)CC(C)(C)N1,219 to 221
7,Cc1noc(-c2cccc(I)c2)n1,102 to 103
8,CCCc1c(C(=O)C(C)C)c2ccc(CC(=O)OC)cc2n1Cc1cc2c(cc1Cl)OCO2,119 to 120
9,O=C(Cc1ccc(-c2ccc(C(CC3CCOCC3)c3ccc(S(=O)(=O)C4CC4)cc3)[nH]2)nc1)N1CCC1 (stereo not given),94 to 98
10,N#CNC(=NC1CCCC1)Nc1cccc(C(F)(F)F)c1,112 to 113
11,CC[Si](CC)(c1ccc(N(c2ccccc2)c2ccccc2)cc1)c1ccc(N(c2ccccc2)c2ccccc2)cc1,154 to 155
12,CS(=O)(=O)c1ccc(-n2cc(C(F)(F)F)nc2-c2ccc(-c3ccco3)cc2)cc1,82 to 84
13,CCCCCCCCCCCCCCCCSCC(CNS(=O)(=O)CCCCl)n1nnnc1C (stereo not given),62 to 62.5
14,Clc1ccc2cc(OC3CCCCO3)ccc2n1 (stereo not given),122 to 124
15,C#CCCC(=O)Oc1cc(-n2c(OC)nc(C(F)(F)C(F)(F)F)c(F)c2=O)c(F)cc1Cl,107 to 109
16,Nc1nc(N)c2ncn(OCCCCP(=O)(O)O)c2n1,295 to 297
17,O=C1COC2(CCN(CCCC(=O)c3ccc(F)cc3)CC2)CN1,117 to 118
18,CC(=O)OC1CSC(Oc2cnccc2C)C(OC(C)=O)C1OC(C)=O (stereo not given),150
19,CCCCOC(=O)c1ccc(N2CCN(S(C)(=O)=O)CC2)cc1,145 to 150
20,N#Cc1ccc(Cl)cc1OC[C@@H]1CO1,85 to 86
21,CN(C)C1CCN(c2cc3c(Cl)cccc3c(=O)[nH]2)CC1,210 to 211
22,CCN(CC)C(=O)COc1ccc(C(=O)CCl)cc1,89 to 91
23,Fc1ccc(-c2nc[nH]c2-c2cccs2)cc1,197 to 198
24,Cn1c(=O)cc(-c2cccc(Cl)c2)c2cc(C(N)(c3ccc(Cl)cc3)c3cnccc3Cl)ccc21 (stereo not given),180
25,O=C1N(Cc2cc3cccc(F)c3o2)c2ccccc2C12COc1cc3c(cc12)CCO3 (stereo not given),192 to 193
26,COC1CC(N2CCCC2)C(N(C)C(=O)COc2cccc(F)c2)CC1OC (stereo not given),119 to 121

# Results, then the compound that gave them:
row,melting point [°C],Compound
1,152 to 154,CN(C)CCc1[nH]c2ccccc2c1CSc1nccn1C
2,176 to 178,CCOC(=O)c1cnc2c(OC)cccc2c1Nc1cscc1OC
3,114,COc1ccc2oc(C(=O)OCC(C)(C)C(O)C(C)(C)C)cc2c1 (stereo not given)
4,106 to 108,CCCOc1cc(OCCC)c2c(C)c(CCO)c(=O)oc2c1
5,84 to 85,Cc1cc2c(OCc3ccc(C#N)cc3)cccc2o1
6,211 to 216,COc1ccccc1Oc1c(NS(=O)(=O)c2ccc(C)cn2)nc(-c2cccc(O)c2)nc1OC
7,196 to 197,CC(C)C(CCl)NC(=O)c1nsc2ccc(-n3c(=O)cc(C(F)(F)F)n(C)c3=O)cc12 (stereo not given)
8,152 to 153,COc1cc2c(cc1O)CCN(Cc1cc(OC)c(OC)cc1OC)C2
9,112 to 115,COCCOc1ccc(COC(=O)NS(=O)(=O)c2ccc(Cl)cc2)c(Oc2ncc(C(F)(F)F)cc2Cl)c1
10,211 to 212,CCOC(=O)C1=Cc2cc(F)c(Cl)cc2N(Cc2ccccc2)C1
11,206 to 207,Cc1ccc(-c2nc(C)cc(O)n2)cc1
12,92 to 93,CCOC(=O)c1cnc(-c2cc3cccc([N+](=O)[O-])c3n2COC)s1
13,203 to 205,NNc1cc2c(nn1)CCN(C(=O)CCCc1ccccc1)C2
14,220 to 222,CCNC(=O)c1ccc(Oc2c(C)n(CC(=O)O)c3ccc(F)cc23)cc1
15,284 to 286,CC(=O)Nc1nc(-c2cc(C)cc(C)c2)c(-c2ccncc2)s1
16,188 to 189,COC(=O)Nc1nc(C)c(C(=O)c2sc(NC(=O)OC)nc2C)s1
17,95 to 96,CON(C)C(=O)Nc1cccc(OC(C)C(N)=S)c1 (stereo not given)
18,63 to 65,COc1ccc(C2(C#Cc3cccc(NC(=O)C(F)(F)F)c3)CCCC(=O)C2)cc1OC1CCCC1 (stereo not given)
19,198 to 201,COc1cc2c(c3c1OC(C)(C)C3)C(c1cccc(NC(=O)CS(C)=O)c1)=NC(C)(C)C2 (stereo not given)
20,135 to 137,C=C(C)Cn1c(=O)n(C)c(=O)c2c(SCCO)n(Cc3cccc4ccccc34)nc21
21,51.5,CC#CCOc1cc(Cc2cccc(F)c2)ncn1
22,121 to 125,O=C(OCCOCn1cnc2c(Cl)nc(Cl)nc21)c1ccccc1
23,130,COc1cccc2c(N3CCNCC3)cc(C(F)(F)F)nc12
24,183 to 185,COc1ccc(C#N)cc1/C=C/C(=O)Sc1nc2ccccc2s1

row,melting point [°C],Compound
1,113 to 114,CCOC(=O)CC(=O)c1cc(F)c(S(=O)(=O)CC)nc1Nc1ccc(F)cc1F
2,218,CCN(CC)C(=O)Nc1ccc(S(=O)(=O)n2c(=O)n(C3CCCCCC3)c3cc(Cl)ccc32)c(OC)c1
3,120 to 124,Cc1cc(C)cc(C(O)(CCc2cncn2Cc2ccccc2)c2cc(C)cc(C)c2)c1
4,84 to 86,Cc1ccccc1CC(=NC#N)NC(NC(=O)Cc1cccnc1)C(C)(C)C (stereo not given)
5,206 to 207,COc1ccc(-c2nc(Cn3cncn3)nc3cc(OC)c(OC)cc23)cc1
6,250 to 251,CCOC(=O)c1cc(Br)cc2c(=O)cc(-c3cccc(OCc4nc5ccccc5s4)c3)oc12
7,175 to 177,COc1ccccc1N1CCN(CCNC(=O)CCN2CC=C(c3c[nH]c4cc(F)ccc34)CC2)CC1
8,191,[N-]=[N+]=C1C(=O)Oc2cc(OCc3ccccc3)ccc2C1=O
9,44 to 45,COc1cc2c(cc1OC)C(CBr)OCCC2 (stereo not given)
10,81 to 83,CN=Cc1cnc(-c2ccccc2Cl)s1
11,146 to 147,Cc1oc(-c2ccccc2)nc1COc1cccc(CON2C(=O)c3ccccc3C2=O)c1
12,159 to 161,COC(=O)C=Cc1ccc(OCc2nc(-c3ccccc3)c(-c3ccccc3)o2)cc1
13,208 to 211,O=C(O)C(=Cc1cccnc1)c1ccc(Cl)cc1Cl
14,242 to 244,CC(=O)Nc1ncc(Sc2nnc(C)s2)s1
15,90 to 92,CC(C)c1cnc(NC(=O)Nc2cccc(I)c2)s1
16,259 to 260,COc1cc(C=CC(=O)Nc2c(-c3ccccc3Cl)c3cc(C)c(C)cc3n(C)c2=O)cc(OC)c1OC(C)=O
17,204,COc1ccc2c(c1)sc1nc(C)c(CO)n12
18,219 to 220,CC(C)Cn1c(CNC(=O)OC(C)(C)C)c(-c2ccccc2)c2cc(OC(C)(C)C(N)=O)ccc2c1=O
19,165 to 166,Cc1nc(-c2ccc(Cl)cc2)[nH]c1C(=O)N[C@H](C)[C@](O)(Cn1cncn1)c1ccc(F)cc1F
20,192 to 194,Cc1nc2c3c(ccn2c1C)C(O)CC(c1ccsc1)N3 (stereo not given)
21,193 to 195,CCCn1nc2c(N)nc3ccccc3c2c1CC(C)(C)N
22,101 to 102,CC(C)(C)OC(=O)CCCCCOc1ccc2sc(-c3ccccn3)nc(=O)c2c1
23,> 250,O=C(Nc1nccs1)c1nc(-c2cccc3ccccc23)[nH]c1-c1ccccc1

# Source: a melting point compilation (Tetko et al.; mined from patent text by program, amines drawn as free bases though some values may be those of a salt)
